Biological target: T1, human SGLT2 (Homo sapiens, UniProt P31639)
T1 construct: expressed in transfected cells
T1 sequence (P31639 1-672): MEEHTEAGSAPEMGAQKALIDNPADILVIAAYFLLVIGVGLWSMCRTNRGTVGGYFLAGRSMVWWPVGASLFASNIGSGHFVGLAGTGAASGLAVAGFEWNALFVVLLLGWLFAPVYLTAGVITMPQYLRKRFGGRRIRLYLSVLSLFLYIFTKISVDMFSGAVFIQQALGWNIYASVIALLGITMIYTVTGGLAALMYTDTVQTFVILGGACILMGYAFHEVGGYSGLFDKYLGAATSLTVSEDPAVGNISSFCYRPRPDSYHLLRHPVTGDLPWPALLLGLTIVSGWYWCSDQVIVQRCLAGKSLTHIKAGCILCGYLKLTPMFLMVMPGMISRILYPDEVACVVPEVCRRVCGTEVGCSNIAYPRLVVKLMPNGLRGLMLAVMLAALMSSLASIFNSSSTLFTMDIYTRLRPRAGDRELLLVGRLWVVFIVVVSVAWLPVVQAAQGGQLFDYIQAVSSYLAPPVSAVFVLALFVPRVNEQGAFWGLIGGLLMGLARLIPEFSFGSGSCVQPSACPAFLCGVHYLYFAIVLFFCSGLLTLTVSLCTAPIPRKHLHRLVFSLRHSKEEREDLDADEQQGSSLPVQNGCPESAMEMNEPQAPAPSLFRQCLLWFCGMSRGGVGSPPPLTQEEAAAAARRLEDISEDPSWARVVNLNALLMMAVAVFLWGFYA
Test: SGLT2 in vitro assay: Na-dependent 14C-AMG uptake in CHO-K1 cells stably expressing human SGLT2
Type: cell-based
Settings: CHO-K1 cells stably expressing human SGLT2, 14C-AMG uptake; for inhibition at 0.3 µM: read-out: SGLT2 % Inh @ 0.3 μM; for IC50: compounds of formula (I) where R0 is fluoro
Outline: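 CHO-K1 cells stably expressing human SGLT1 or SGLT2, induced with 10 mM Na-butyrate for 24 h. Compounds (0.001–10 μM) in Na+-containing HEPES/Tris buffer pH 7.4 were applied for 10 min, then 14C-AMG ([…]) for 2 h at 37°C; Na-dependent uptake read by scintillation; %-inhibition or IC50.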

Row | Structure (SMILES) | inhibition at 0.3 µM [%] | IC50 [nM]
1 | COc1cc(O)c([C@@H]2O[C@H](CO)C(F)(F)[C@H](O)[C@H]2O)cc1Cc1ccc2c(c1)CCCO2 [Compound 44, (2S,3R,4R,6R)-2-(5-(chroman-6-ylmethyl)-2-hydroxy-4-methoxyphenyl)-5,5-difluoro-6-(hydroxymethyl)tetrahydro-2H-pyran-3,4-diol] | 90.1 | 1.3
2 | COc1ccc(Cc2cc([C@@H]3O[C@H](CO)C(F)(F)[C@H](O)[C@H]3O)c(O)cc2Cl)cc1 [Compound 81, (2S,3R,4R,6R)-2-(4-chloro-2-hydroxy-5-(4-methoxybenzyl)phenyl)-5,5-difluoro-6-(hydroxymethyl)-tetrahydro-2H-pyran-3,4-diol] | 87.4 | 1.1
